{
  "source": "patent EP1844783A1",
  "about": "(priority 2006, dated 2007)",
  "origin": "cited, not measured here",
  "system": "EAE",
  "conditions": "Craner et al., 2005",
  "data": [
    {"smiles": "O=C1NC(=O)C(c2ccccc2)(c2ccccc2)N1", "note": "[phenytoin]", "values": [
      {"measurement": "ameliorates the inflammatory cell infiltrate in EAE", "result": 75, "unit": "%"}
    ]}
  ]
}
